Key:
EphB4-Fc with EB2-His = molecular target: T1, EphB4-Fc with EB2-His (Mus musculus, UniProt P54761); test: Alpha assay EphB4-EB2; format: binding; details: for antagonism of EphB4-EB2 interaction: Alpha, ELISA, pulldown
T1 construct: soluble EphB ectodomains conjugated to Fc from R&D Systems; mouse EB2-His residues 18-232; purchased R&D Systems (EphB-Fc); Sino Biologicals (EphrinB-His)
T1 sequence (P54761 16-539 limits assumed): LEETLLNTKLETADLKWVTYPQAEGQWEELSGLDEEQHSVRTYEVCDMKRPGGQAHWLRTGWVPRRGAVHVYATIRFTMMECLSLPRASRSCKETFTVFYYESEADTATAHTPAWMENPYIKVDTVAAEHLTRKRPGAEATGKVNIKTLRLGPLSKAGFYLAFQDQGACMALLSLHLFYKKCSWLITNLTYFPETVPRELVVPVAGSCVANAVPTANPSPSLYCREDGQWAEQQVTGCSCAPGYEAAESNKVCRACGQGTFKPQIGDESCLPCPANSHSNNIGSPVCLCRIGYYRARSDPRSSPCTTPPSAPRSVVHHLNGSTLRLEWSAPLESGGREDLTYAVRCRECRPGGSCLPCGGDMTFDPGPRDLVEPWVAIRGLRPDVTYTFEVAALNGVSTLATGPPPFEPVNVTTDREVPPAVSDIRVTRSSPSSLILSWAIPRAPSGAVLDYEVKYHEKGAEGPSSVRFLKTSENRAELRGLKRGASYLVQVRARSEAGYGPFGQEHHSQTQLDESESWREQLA
Experimental: FIG. 5D depicts results from an alpha assay using EphB2-Fc or EphB4-Fc with EB2-His and increasing A20 concentrations to calculate IC50 determination (~10 μM, similar to that found in FIG. 5C).
Protein interaction assays were developed using soluble EphB ectodomains conjugated to Fc from R&D Systems (e.g., rat EphB1-Fc residues 18-538, which is 99.4% identical to human) and EphrinB ectodomains conjugated to His from Sino Biologicals (e.g., mouse EB2-His residues 18-232, which is 97.7% identical to human). Titrating concentrations of the EphB1-Fc ectodomain (or unconjugated Fc protein as negative control) was added with titrating amounts of the three different EphrinB ectodomains (EB1-His, EB2-His, or EB3-His) with 125 ng each of the Protein A donor, anti-6×-His acceptor beads, 2% DMSO, and 1× HiBlock buffer (all from PerkinElmer) in 384 well plates, and after 3 hr incubation at RT were read in an Envision Multilabel Reader 2102. […] No signal above background (<1,500) was detected for wells that contained an Fc control protein and the EB-His proteins or just the EphB1-Fc protein and no EB-His protein.
A20, E13, and other compounds from the top 32 hits were then characterized in pulldown assays. EphB1-Fc was immobilized onto Protein A agarose beads, then mixed with compounds and the soluble EB2-His ectodomain for 1 hr at RT, after which protein complexes were washed and then bound EB2 was detected by immunoblot using anti-His antibodies.

EphB2-EphrinB2 = molecular target: T2, EphB2-EphrinB2 (Mus musculus, UniProt P54763); test: EphrinB2 co-immunoprecipitation with EphB2 in mouse brain after dosing; format: in vivo; details: IP 10 mg/kg every 12 hr, 4 days
T2 construct: Whole brain protein lysates were then prepared in a Dounce homogenizer; from tissue; host or cells: brain of wild-type mice
T2 sequence (P54763 19-986): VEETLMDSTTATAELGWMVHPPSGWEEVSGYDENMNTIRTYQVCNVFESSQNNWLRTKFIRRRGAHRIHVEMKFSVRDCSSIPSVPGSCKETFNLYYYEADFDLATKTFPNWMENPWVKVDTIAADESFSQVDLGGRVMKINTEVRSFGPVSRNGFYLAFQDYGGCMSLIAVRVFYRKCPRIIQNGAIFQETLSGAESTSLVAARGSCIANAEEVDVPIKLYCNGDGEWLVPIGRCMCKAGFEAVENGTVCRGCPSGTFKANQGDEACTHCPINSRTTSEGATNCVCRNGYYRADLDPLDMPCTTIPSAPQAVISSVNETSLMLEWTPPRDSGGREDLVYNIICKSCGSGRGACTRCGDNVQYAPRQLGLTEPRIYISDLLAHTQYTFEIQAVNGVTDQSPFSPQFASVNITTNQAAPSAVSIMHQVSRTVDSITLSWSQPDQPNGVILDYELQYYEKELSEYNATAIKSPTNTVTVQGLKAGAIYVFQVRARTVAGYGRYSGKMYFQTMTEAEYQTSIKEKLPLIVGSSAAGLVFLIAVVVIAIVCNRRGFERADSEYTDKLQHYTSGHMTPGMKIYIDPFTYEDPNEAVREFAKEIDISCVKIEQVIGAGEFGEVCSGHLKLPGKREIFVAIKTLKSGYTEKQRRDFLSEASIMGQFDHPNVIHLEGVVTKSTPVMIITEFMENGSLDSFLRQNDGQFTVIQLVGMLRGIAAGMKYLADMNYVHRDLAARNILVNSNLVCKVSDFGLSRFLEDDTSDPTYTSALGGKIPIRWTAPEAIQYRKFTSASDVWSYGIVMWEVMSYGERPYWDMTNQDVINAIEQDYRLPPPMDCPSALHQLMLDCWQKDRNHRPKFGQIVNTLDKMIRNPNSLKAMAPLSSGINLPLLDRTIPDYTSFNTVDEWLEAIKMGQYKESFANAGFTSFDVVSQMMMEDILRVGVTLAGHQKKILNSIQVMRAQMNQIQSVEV
Experimental: Wild-type mice aged 10-12 weeks were IP injected every 12 hr for four days with vehicle (PBS) or 10 mg/kg of 2×·HCl salt forms of A20 (in PBS), A20-I (in PBS), or 3511-I, in 94% PBS/6% DMSO) for a total of 8 injections. Exactly 2 hr after final injection of A20 chemical, brains were dissected and frozen at −80 °C. Whole brain protein lysates were then prepared in a Dounce homogenizer using 5 ml PLC lysis buffer, and 1 ml of lysate was used for immunoprecipitation (IP) with 1 μg goat anti-EphB2 antibody, followed by immunoblot (IB) analysis with goat anti-EphB2, rabbit anti-phosphoEphB1/B2 (pEphB1/B2), and mouse anti-EphrinB2 antibodies using appropriate HRP conjugated secondary antibodies and chemiluminescent detection methods.
FIG. 79A depicts an illustrative immunoblot showing expression of EphB2, phospho-EphB1/B2, and EphrinB2 (co-IP) in the mouse brains. […] The level of co-immunoprecipitated EphrinB2 from the brains of A20 chemical injected animals was generally lower as indicated by fainter bands. FIGS. 79B and 79C show quantification of band intensities (number of photons detected) to obtain ratios of pEphB/EphB2 as a measure of EphB2 receptor activation levels (FIG. 79B) and ratios of EphrinB2/EphB2 as a measure of how much EphrinB2 is co-immunoprecipitated with the EphB2 receptor (FIG. 79C).

| SMILES | antagonism of EphB4-EB2 interaction (EphB4-Fc with EB2-His) | association of EphrinB2 with EphB2 in brain (EphB2-EphrinB2) | IC50 (EphB4-Fc with EB2-His; EphB4-EB2) |
| --- | --- | --- | --- |
| Oc1c(Cl)cc(CN2CCOCC2)c2cccnc12 [Compound 3, 7-chloro-5-(morpholinomethyl)quinolin-8-ol] | very little if any effect on the EphB4-EB2 interaction |  |  |
| Oc1c(I)cc(CN2CCOCC2)c2cccnc12 [Compound 7, 7-iodo-5-(morpholinomethyl)quinolin-8-ol] |  | reduced level of association with EphrinB2 |  |
| COc1ccccc1N1CCN(Cc2cc(I)c(O)c3ncccc23)CC1 [Compound 71, 7-iodo-5-((4-(2-methoxyphenyl)piperazin-1-yl)methyl)quinolin-8-ol] |  | reduced level of association with EphrinB2 |  |
| COc1ccccc1N1CCN(Cc2cc(Br)c(O)c3ncccc23)CC1 [Compound 70, 7-bromo-5-((4-(2-methoxyphenyl)piperazin-1-yl)methyl)quinolin-8-ol] | very little if any effect on the EphB4-EB2 interaction |  |  |
| Oc1c(Br)cc(CN2CCOCC2)c2cccnc12 [Compound 5, 7-bromo-5-(morpholinomethyl)quinolin-8-ol] |  | reduced level of association with EphrinB2 | > 150 µM |
